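Cells were grown in 96-well plates and exposed to each compound for 48 hours at five concentrations; endpoints were interpolated linearly between bracketing concentrations, or set to the highest concentration if not reached. TGI: total growth inhibition.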
Legend:
Assay in all cases: NCI-60 cell line screen, 48 h
T-47D breast = system: T-47D breast
RPMI-8226 leukemia = system: RPMI-8226 leukemia
EKVX NSCLC = system: EKVX NSCLC
UACC-62 melanoma = system: UACC-62 melanoma
SF-295 CNS = system: SF-295 CNS
RXF 393 renal = system: RXF 393 renal
M14 melanoma = system: M14 melanoma
SF-268 CNS = system: SF-268 CNS
MCF7 breast = system: MCF7 breast
HCT-116 colon = system: HCT-116 colon
COLO 205 colon = system: COLO 205 colon
SN12C renal = system: SN12C renal
OVCAR-4 ovarian = system: OVCAR-4 ovarian
OVCAR-3 ovarian = system: OVCAR-3 ovarian
SF-539 CNS = system: SF-539 CNS
PC-3 prostate = system: PC-3 prostate
K-562 leukemia = system: K-562 leukemia
BT-549 breast = system: BT-549 breast
SNB-75 CNS = system: SNB-75 CNS
IGROV1 ovarian = system: IGROV1 ovarian
UO-31 renal = system: UO-31 renal
786-0 renal = system: 786-0 renal
NCI-H522 lung = system: NCI-H522 lung
TK-10 renal = system: TK-10 renal
CCRF-CEM leukemia = system: CCRF-CEM leukemia
NCI-H226 lung = system: NCI-H226 lung
SK-MEL-28 melanoma = system: SK-MEL-28 melanoma
KM12 colon = system: KM12 colon
UACC-257 melanoma = system: UACC-257 melanoma
OVCAR-5 ovarian = system: OVCAR-5 ovarian
SNB-19 CNS = system: SNB-19 CNS
HCC-2998 colon = system: HCC-2998 colon
NCI/ADR-RES ovarian = system: NCI/ADR-RES ovarian
MDA-MB-231 breast = system: MDA-MB-231 breast
NCI-H23 lung = system: NCI-H23 lung
NCI-H460 lung = system: NCI-H460 lung
ACHN renal = system: ACHN renal
MDA-N = system: MDA-N
SW-620 colon = system: SW-620 colon
HL-60(TB) leukemia = system: HL-60(TB) leukemia
HS 578T breast = system: HS 578T breast
U251 CNS = system: U251 CNS
SR leukemia = system: SR leukemia
HOP-62 NSCLC = system: HOP-62 NSCLC
DU-145 prostate = system: DU-145 prostate
SK-OV-3 ovarian = system: SK-OV-3 ovarian
A549 NSCLC = system: A549 NSCLC
HOP-92 NSCLC = system: HOP-92 NSCLC
SK-MEL-2 melanoma = system: SK-MEL-2 melanoma
LOX IMVI melanoma = system: LOX IMVI melanoma
MALME-3M melanoma = system: MALME-3M melanoma
MDA-MB-435 = system: MDA-MB-435
CAKI-1 renal = system: CAKI-1 renal
MOLT-4 leukemia = system: MOLT-4 leukemia
HT29 colon = system: HT29 colon
OVCAR-8 ovarian = system: OVCAR-8 ovarian
HCT-15 colon = system: HCT-15 colon
SK-MEL-5 melanoma = system: SK-MEL-5 melanoma
A498 renal = system: A498 renal

C=C(C)C(O)C(O)C[C@@H](C)C1CC[C@]23C[C@]12CCC1[C@@]2(C)CCC(OC(C)=O)C(C)(C)C2CC(OC2OC(CO)C(O)C(O)C2O)[C@]13C (stereo not given in full)
TGI (T-47D breast): 31.6 µM
TGI (RPMI-8226 leukemia): 46.5 µM
TGI (EKVX NSCLC): > 100 µM
TGI (UACC-62 melanoma): 31.8 µM
TGI (SF-295 CNS): 36.7 µM
TGI (RXF 393 renal): 29.3 µM
TGI (M14 melanoma): 28.4 µM
TGI (SF-268 CNS): 33 µM
TGI (MCF7 breast): 31 µM
TGI (HCT-116 colon): 29.5 µM
TGI (COLO 205 colon): 31.5 µM
TGI (SN12C renal): 30.9 µM
TGI (OVCAR-4 ovarian): 41.8 µM
TGI (OVCAR-3 ovarian): 32.3 µM
TGI (SF-539 CNS): 27.8 µM
TGI (PC-3 prostate): 34.7 µM
TGI (K-562 leukemia): 46.6 µM
TGI (BT-549 breast): 27.6 µM
TGI (SNB-75 CNS): 43 µM
TGI (IGROV1 ovarian): 28.8 µM
TGI (UO-31 renal): > 100 µM
TGI (786-0 renal): 35.1 µM
TGI (NCI-H522 lung): 30.7 µM
TGI (TK-10 renal): 56.2 µM
TGI (CCRF-CEM leukemia): 31.2 µM
TGI (NCI-H226 lung): 39.9 µM
TGI (SK-MEL-28 melanoma): 37.1 µM
TGI (KM12 colon): 31.8 µM
TGI (UACC-257 melanoma): 31.4 µM
TGI (OVCAR-5 ovarian): 45.9 µM
TGI (SNB-19 CNS): 45.1 µM
TGI (HCC-2998 colon): 29.1 µM
TGI (NCI/ADR-RES ovarian): > 100 µM
TGI (MDA-MB-231 breast): 28.2 µM
TGI (NCI-H23 lung): 41.6 µM
TGI (NCI-H460 lung): 34.5 µM
TGI (ACHN renal): > 100 µM
TGI (MDA-N): 31.1 µM
TGI (SW-620 colon): 30.8 µM
TGI (HL-60(TB) leukemia): 36.7 µM
TGI (HS 578T breast): 39.6 µM
TGI (U251 CNS): 29.1 µM
TGI (SR leukemia): 36.3 µM
TGI (HOP-62 NSCLC): 31.9 µM
TGI (DU-145 prostate): 43.3 µM
TGI (SK-OV-3 ovarian): 45.7 µM
TGI (A549 NSCLC): > 100 µM
TGI (HOP-92 NSCLC): 25.7 µM
TGI (SK-MEL-2 melanoma): 30.6 µM
TGI (LOX IMVI melanoma): 32.3 µM
TGI (MALME-3M melanoma): 32.3 µM
TGI (MDA-MB-435): 31.7 µM
TGI (CAKI-1 renal): > 100 µM
TGI (MOLT-4 leukemia): 38.3 µM
TGI (HT29 colon): 33.6 µM
TGI (OVCAR-8 ovarian): 37.1 µM
TGI (HCT-15 colon): > 100 µM
TGI (SK-MEL-5 melanoma): 33.1 µM

O=c1c2cc(Cl)ccc2[nH]c2cc(O)cc(O)c12
TGI (T-47D breast): > 10 µM
TGI (RPMI-8226 leukemia): > 10 µM
TGI (EKVX NSCLC): > 10 µM
TGI (UACC-62 melanoma): > 10 µM
TGI (SF-295 CNS): > 10 µM
TGI (RXF 393 renal): > 10 µM
TGI (M14 melanoma): > 10 µM
TGI (SF-268 CNS): > 10 µM
TGI (MCF7 breast): > 10 µM
TGI (HCT-116 colon): > 10 µM
TGI (COLO 205 colon): > 10 µM
TGI (SN12C renal): > 10 µM
TGI (OVCAR-4 ovarian): > 10 µM
TGI (OVCAR-3 ovarian): > 10 µM
TGI (SF-539 CNS): > 10 µM
TGI (PC-3 prostate): > 10 µM
TGI (K-562 leukemia): > 10 µM
TGI (BT-549 breast): > 10 µM
TGI (SNB-75 CNS): > 10 µM
TGI (IGROV1 ovarian): > 10 µM
TGI (786-0 renal): > 10 µM
TGI (NCI-H522 lung): > 10 µM
TGI (TK-10 renal): > 10 µM
TGI (CCRF-CEM leukemia): > 10 µM
TGI (NCI-H226 lung): > 10 µM
TGI (SK-MEL-28 melanoma): > 10 µM
TGI (KM12 colon): > 10 µM
TGI (UACC-257 melanoma): > 10 µM
TGI (OVCAR-5 ovarian): > 10 µM
TGI (SNB-19 CNS): > 10 µM
TGI (HCC-2998 colon): > 10 µM
TGI (NCI/ADR-RES ovarian): > 10 µM
TGI (MDA-MB-231 breast): > 10 µM
TGI (NCI-H23 lung): > 10 µM
TGI (NCI-H460 lung): > 10 µM
TGI (ACHN renal): > 10 µM
TGI (MDA-N): > 10 µM
TGI (SW-620 colon): > 10 µM
TGI (HL-60(TB) leukemia): > 10 µM
TGI (HS 578T breast): > 10 µM
TGI (U251 CNS): > 10 µM
TGI (SR leukemia): > 10 µM
TGI (HOP-62 NSCLC): > 10 µM
TGI (DU-145 prostate): > 10 µM
TGI (SK-OV-3 ovarian): > 10 µM
TGI (A549 NSCLC): > 10 µM
TGI (HOP-92 NSCLC): > 10 µM
TGI (A498 renal): > 10 µM
TGI (SK-MEL-2 melanoma): > 10 µM
TGI (MALME-3M melanoma): > 10 µM
TGI (MDA-MB-435): > 10 µM
TGI (CAKI-1 renal): > 10 µM
TGI (MOLT-4 leukemia): > 10 µM
TGI (HT29 colon): > 10 µM
TGI (OVCAR-8 ovarian): > 10 µM
TGI (HCT-15 colon): > 10 µM
TGI (SK-MEL-5 melanoma): > 10 µM
